System: patients with non-cirrhotic, non-alcoholic steatohepatitis
Experiment: Randomized placebo-controlled clinical trial in non-alcoholic steatohepatitis
Format: in vivo, humans
Conditions: at 24 weeks; 25 mg daily orally vs placebo; 95% CI −45 to −3
Method: A multicenter, double-blind, placebo-controlled, parallel group, randomized clinical trial was conducted in patients with non-cirrhotic, non-alcoholic steatohepatitis to assess treatment with obeticholic acid given orally (25 mg daily) or placebo for 72 weeks. Patients were randomly assigned 1:1 using a computer-generated, centrally administered procedure, stratified by clinical center and diabetes status. The primary outcome measure was improvement in centrally scored liver histology defined as a decrease in non-alcoholic fatty liver disease activity score by at least 2 points without worsening of fibrosis from baseline to the end of treatment. Change in alanine aminotransferase at 24 weeks was measured: relative change in alanine aminotransferase −24%, 95% CI −45 to −3.
Patients were enrolled in the study according to the following inclusion criteria: 18 years or older at the time of screening, histological evidence of definite or borderline non-alcoholic steatohepatitis based upon a liver biopsy obtained 90 days or less before randomization, and a histological non-alcoholic fatty liver disease (NAFLD) activity score of 4 or more with a score of 1 or more in each component of the score (steatosis scored 0-3, ballooning 0-2, and lobular inflammation 0-3). Grading and staging of biopsies for the purposes of enrollment were carried out at the site of enrollment. […]

CC[C@H]1[C@@H](O)[C@@H]2[C@H](CC[C@]3(C)[C@@H]([C@H](C)CCC(=O)O)CC[C@@H]23)[C@@]2(C)CC[C@@H](O)C[C@@H]12 [OCA, 3α,7α-dihydroxy-6α-ethyl-5β-cholan-24-oic acid]
relative change in alanine aminotransferase: −24%

— patent US12337003B2, “Pharmaceutical compositions for combination therapy” (Intercept Pharmaceuticals, Inc., priority 2015, dated 2025)
